Test results published in BindingDB's records for patent US9669095 (Enanta Pharmaceuticals, 2017).

The compounds below were run against Genome polyprotein (Hepatitis C virus genotype 1a (isolate H77), UniProt P27958) (assay: HCV Replicon Assay Luciferase). Settings: 37 °C.
Description: Briefly, replicon cells are seeded at 7,000 cells per well in 90 ul DMEM (without phenol red, Invitrogen Cat. #31053-036) per well with 10% FCS, 1% non-essential amino acids, 1% of Glutamax and 1% of 100 penicillin/streptomycin and incubated overnight at 37° C., 5% CO2, 100% relative humidity. 16-20 h after seeding cells, test compounds previously solubilized and titrated in dimethyl sulfoxide ( DMSO") from each X plate and Y plate are diluted 1:100 in DMEM (without phenol red, Invitrogen Cat. #31053-036) with 10% FCS, 1% non-essential amino acids, 1% of Glutamax and 1% of 100 penicillin/streptomycin and added directly to the 96-well plate containing cells and growth medium at a 1:10 dilution for a final dilution of compound and DMSO of 1:1000 ([…]). Drug treated cells are incubated at 37° C., 5% CO2, 100% relative humidity for 72 hours before performing a luciferase assay using 100 ul per well BriteLite Plus (Perkin Elmer) according to the manufacturer's instructions. Data analysis utilizes the method published by Prichard and Shipman (Antiviral Research, 1990. 14:181-205). Using this method, the combination data are analyzed for antagonistic, additive, or synergistic combination effects across the entire combination surface created by the diluted compounds in combination.

Sequence of Genome polyprotein (P27958 whole entry): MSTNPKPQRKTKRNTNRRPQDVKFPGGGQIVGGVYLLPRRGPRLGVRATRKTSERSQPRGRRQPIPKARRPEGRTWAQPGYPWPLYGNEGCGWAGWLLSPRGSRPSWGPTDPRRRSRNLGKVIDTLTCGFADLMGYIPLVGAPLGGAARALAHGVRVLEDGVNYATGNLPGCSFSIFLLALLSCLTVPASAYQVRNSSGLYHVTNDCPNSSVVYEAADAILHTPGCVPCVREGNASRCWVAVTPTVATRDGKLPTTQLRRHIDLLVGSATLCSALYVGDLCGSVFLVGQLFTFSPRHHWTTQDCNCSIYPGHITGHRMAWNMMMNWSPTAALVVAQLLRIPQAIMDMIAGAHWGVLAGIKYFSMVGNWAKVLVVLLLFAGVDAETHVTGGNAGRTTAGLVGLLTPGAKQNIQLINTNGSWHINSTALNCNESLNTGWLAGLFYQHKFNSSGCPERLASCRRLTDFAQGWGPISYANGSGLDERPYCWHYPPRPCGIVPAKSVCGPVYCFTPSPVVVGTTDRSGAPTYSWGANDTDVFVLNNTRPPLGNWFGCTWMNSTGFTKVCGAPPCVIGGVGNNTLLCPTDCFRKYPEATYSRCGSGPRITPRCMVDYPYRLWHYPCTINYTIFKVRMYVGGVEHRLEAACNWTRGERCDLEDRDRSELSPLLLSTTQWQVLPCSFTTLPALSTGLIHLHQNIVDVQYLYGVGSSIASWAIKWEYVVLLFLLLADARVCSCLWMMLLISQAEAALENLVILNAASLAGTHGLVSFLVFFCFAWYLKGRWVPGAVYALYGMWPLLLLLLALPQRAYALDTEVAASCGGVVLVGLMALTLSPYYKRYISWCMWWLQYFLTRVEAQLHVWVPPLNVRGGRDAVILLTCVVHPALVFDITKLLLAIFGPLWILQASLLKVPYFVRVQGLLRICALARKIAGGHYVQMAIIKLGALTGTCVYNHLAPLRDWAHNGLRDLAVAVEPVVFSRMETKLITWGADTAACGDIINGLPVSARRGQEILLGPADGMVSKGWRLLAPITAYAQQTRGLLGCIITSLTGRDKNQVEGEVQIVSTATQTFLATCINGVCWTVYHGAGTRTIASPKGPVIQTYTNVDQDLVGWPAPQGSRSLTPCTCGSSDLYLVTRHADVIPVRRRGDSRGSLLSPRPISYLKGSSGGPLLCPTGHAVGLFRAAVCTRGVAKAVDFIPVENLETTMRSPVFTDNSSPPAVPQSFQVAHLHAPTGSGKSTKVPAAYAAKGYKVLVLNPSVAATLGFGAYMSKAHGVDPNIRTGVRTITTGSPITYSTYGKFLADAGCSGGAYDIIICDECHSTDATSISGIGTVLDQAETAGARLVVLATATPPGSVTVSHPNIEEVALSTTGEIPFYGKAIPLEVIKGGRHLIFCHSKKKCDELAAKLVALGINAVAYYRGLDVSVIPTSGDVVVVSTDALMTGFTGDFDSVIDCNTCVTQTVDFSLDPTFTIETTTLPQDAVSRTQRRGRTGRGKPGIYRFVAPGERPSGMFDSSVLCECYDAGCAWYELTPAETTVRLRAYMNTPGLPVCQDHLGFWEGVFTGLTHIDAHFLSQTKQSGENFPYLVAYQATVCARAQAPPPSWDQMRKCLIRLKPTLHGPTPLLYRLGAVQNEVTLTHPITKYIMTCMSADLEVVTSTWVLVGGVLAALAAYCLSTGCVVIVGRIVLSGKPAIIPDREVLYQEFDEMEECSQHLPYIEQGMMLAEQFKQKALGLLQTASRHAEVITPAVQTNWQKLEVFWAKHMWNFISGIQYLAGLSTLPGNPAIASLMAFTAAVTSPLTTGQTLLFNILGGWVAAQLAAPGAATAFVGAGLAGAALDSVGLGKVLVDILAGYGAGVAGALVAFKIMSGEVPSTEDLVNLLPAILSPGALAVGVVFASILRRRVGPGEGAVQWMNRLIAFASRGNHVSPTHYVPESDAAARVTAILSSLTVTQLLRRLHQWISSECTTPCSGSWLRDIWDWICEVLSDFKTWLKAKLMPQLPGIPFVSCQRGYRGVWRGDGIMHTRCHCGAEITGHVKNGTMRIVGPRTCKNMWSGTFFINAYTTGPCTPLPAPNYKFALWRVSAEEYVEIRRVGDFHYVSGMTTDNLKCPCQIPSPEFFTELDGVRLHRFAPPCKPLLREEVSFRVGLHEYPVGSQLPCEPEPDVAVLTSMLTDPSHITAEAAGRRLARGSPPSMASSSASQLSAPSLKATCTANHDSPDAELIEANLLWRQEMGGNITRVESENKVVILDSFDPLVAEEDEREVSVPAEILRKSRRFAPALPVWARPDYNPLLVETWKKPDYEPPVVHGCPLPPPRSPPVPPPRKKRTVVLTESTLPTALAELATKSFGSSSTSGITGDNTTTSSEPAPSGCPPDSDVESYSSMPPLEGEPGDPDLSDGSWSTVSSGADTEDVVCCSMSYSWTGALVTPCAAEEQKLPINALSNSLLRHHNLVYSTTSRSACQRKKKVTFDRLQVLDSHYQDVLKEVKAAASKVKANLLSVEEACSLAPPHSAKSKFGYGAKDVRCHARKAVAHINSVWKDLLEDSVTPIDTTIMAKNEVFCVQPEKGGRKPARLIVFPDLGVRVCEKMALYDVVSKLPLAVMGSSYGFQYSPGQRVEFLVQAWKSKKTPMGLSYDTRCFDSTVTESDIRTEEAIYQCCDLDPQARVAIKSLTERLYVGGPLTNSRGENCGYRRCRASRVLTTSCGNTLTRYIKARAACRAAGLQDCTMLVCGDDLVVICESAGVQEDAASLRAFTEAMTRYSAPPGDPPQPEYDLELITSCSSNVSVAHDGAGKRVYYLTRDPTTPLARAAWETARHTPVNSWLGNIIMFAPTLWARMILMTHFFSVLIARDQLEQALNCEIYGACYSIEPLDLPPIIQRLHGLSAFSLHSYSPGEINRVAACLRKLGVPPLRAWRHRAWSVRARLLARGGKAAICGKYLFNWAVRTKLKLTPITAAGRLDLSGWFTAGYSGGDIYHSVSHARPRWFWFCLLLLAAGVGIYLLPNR

Question: How did the EC50 turn out when `CC[C@@H]1NC(=O)[C@H](C(=O)[C@H](C)CCCCCSc2nnnn2C)NC(=O)[C@@H](C(C)C)N(C)C(=O)[C@H](CC(C)C)N(C)C(=O)[C@H](CC(C)C)N(C)C(=O)[C@@H](C)NC(=O)[C@H](C)NC(=O)[C@@H](CC(C)C)N(C)C(=O)[C@H](C(C)C)NC(=O)[C@H](C(C)(C)CN(C)C(=O)[C@@H](NC(=O)OC)C(C)C)N(C)C(=O)[C@@H](C)N(C)C1=O` [US9669095, 9] was run?
Answer: in the range around 55 nM

Question: Which EC50 does the source give for `CC[C@@H]1NC(=O)[C@H](C(=O)[C@H](C)CCCCCN2CCOCC2)NC(=O)[C@@H](C(C)C)N(C)C(=O)[C@H](CC(C)C)N(C)C(=O)[C@H](CC(C)C)N(C)C(=O)[C@@H](C)NC(=O)[C@H](C)NC(=O)[C@@H](CC(C)C)N(C)C(=O)[C@H](C(C)C)NC(=O)[C@H](C(C)(C)CN(C)C(=O)OC)N(C)C(=O)[C@@H](C)N(C)C1=O` [US9669095, 6] here?
Answer: in the range around 55 nM

Question: Which EC50 does the source give for `C/C=C/C[C@@H](C)C(=O)[C@@H]1NC(=O)[C@H](C(C)C)N(C)C(=O)[C@H](CC(C)C)N(C)C(=O)[C@H](CC(C)C)N(C)C(=O)[C@@H](C)NC(=O)[C@H](C)NC(=O)[C@H](CC(C)C)N(C)C(=O)[C@H](C(C)C)NC(=O)[C@H](C(C)(C)COC(=O)NC)N(C)C(=O)[C@@H](C)N(C)C(=O)[C@H](CC)NC1=O` [US9669095, 5] here?
Answer: in the range around 55 nM

Question: How did the EC50 turn out when `C/C=C/C[C@@H](C)C(=O)[C@@H]1NC(=O)[C@H](C(C)C)N(C)C(=O)[C@H](CC(C)C)N(C)C(=O)[C@H](CC(C)C)N(C)C(=O)[C@@H](C)NC(=O)[C@H](C)NC(=O)[C@H](CC(C)C)N(C)C(=O)[C@H](C(C)C)NC(=O)[C@H](C(C)(C)CNC)N(C)C(=O)[C@@H](C)N(C)C(=O)[C@H](CC)NC1=O` [US9669095, 1] was run?
Answer: in the range around 55 nM

Question: For `CCCC[C@@H](C)C(=O)[C@@H]1NC(=O)[C@H](C(C)C)N(C)C(=O)[C@H](CC(C)C)N(C)C(=O)[C@H](CC(C)C)N(C)C(=O)[C@@H](C)NC(=O)[C@H](C)NC(=O)[C@H](CC(C)C)N(C)C(=O)[C@H](C(C)C)NC(=O)[C@H](C(C)(C)COC(=O)NC)N(C)C(=O)[C@@H](C)N(C)C(=O)[C@H](CC)NC1=O` [US9669095, 3], which EC50 is on record?
Answer: in the range around 55 nM

Question: `C/C=C/C[C@@H](C)C1ON2C(=O)[C@H](C(C)C)N(C)C(=O)[C@H](CC(C)C)N(C)C(=O)[C@@H](CC(C)C)N(C)C(=O)[C@@H](C)NC(=O)[C@H](C)NC(=O)[C@H](CC(C)C)N(C)C(=O)[C@H](C(C)C)NC(=O)[C@H](C(C)(C)CN(C)C(=O)NS(C)(=O)=O)N(C)C(=O)[C@@H](C)N(C)C(=O)[C@H](CC)NC(=O)[C@H]12` (stereo partly drawn) [US9669095, 13] was tested. Which EC50 did it give?
Answer: in the range around 550 nM

Question: With `C/C=C/C[C@@H](C)C1ON2C(=O)[C@H](C(C)C)N(C)C(=O)[C@H](CC(C)C)N(C)C(=O)[C@@H](CC(C)C)N(C)C(=O)[C@@H](C)NC(=O)[C@H](C)NC(=O)[C@H](CC(C)C)N(C)C(=O)[C@H](C(C)C)NC(=O)[C@H](C(C)(C)CN(C)C(=O)NS(=O)(=O)c3ccccc3)N(C)C(=O)[C@@H](C)N(C)C(=O)[C@H](CC)NC(=O)[C@H]12` (stereo partly drawn) [US9669095, 14] as the compound, how does the EC50 read?
Answer: in the range around 550 nM

Question: Which EC50 does the source give for `C/C=C/C[C@@H](C)C1ON2C(=O)[C@H](C(C)C)N(C)C(=O)[C@H](CC(C)C)N(C)C(=O)[C@@H](CC(C)C)N(C)C(=O)[C@@H](C)NC(=O)[C@H](C)NC(=O)[C@H](CC(C)C)N(C)C(=O)[C@H](C(C)C)NC(=O)[C@H](C(C)(C)COC(=O)NS(C)(=O)=O)N(C)C(=O)[C@@H](C)N(C)C(=O)[C@H](CC)NC(=O)[C@H]12` (stereo partly drawn) [US9669095, 11] here?
Answer: > 1000 nM

Question: With `CCCC[C@@H](C)C(=O)[C@@H]1NC(=O)[C@H](C(C)C)N(C)C(=O)[C@H](CC(C)C)N(C)C(=O)[C@H](CC(C)C)N(C)C(=O)[C@@H](C)NC(=O)[C@H](C)NC(=O)[C@H](CC(C)C)N(C)C(=O)[C@H](C(C)C)NC(=O)[C@H](C(C)(C)COC(=O)N(C)C)N(C)C(=O)[C@@H](C)N(C)C(=O)[C@H](CC)NC1=O` [US9669095, 4] as the compound, how does the EC50 read?
Answer: in the range around 55 nM

Question: For `CCCC[C@@H](C)C(=O)[C@@H]1NC(=O)[C@H](C(C)C)N(C)C(=O)[C@H](CC(C)C)N(C)C(=O)[C@H](CC(C)C)N(C)C(=O)[C@@H](C)NC(=O)[C@H](C)NC(=O)[C@H](CC(C)C)N(C)C(=O)[C@H](C(C)C)NC(=O)[C@H](C(C)(C)CO)N(C)C(=O)[C@@H](C)N(C)C(=O)[C@H](CC)NC1=O` [US9669095, 2], which EC50 is on record?
Answer: in the range around 55 nM

Question: How did the EC50 turn out when `CC[C@@H]1NC(=O)[C@H](C(=O)[C@H](C)CCCCCN2CCOCC2)NC(=O)[C@H](C(C)C)N(C)C(=O)[C@H](CC(C)C)N(C)C(=O)[C@H](CC(C)C)N(C)C(=O)[C@@H](C)NC(=O)[C@H](C)NC(=O)[C@H](CC(C)C)N(C)C(=O)[C@H](C(C)C)NC(=O)[C@H](C(C)(C)CN(C)C(=O)[C@@H](NC(=O)OC)C(C)C)N(C)C(=O)[C@@H](C)N(C)C1=O` [US9669095, 8] was run?
Answer: in the range around 55 nM

Question: How did the EC50 turn out when `CC[C@@H]1NC(=O)[C@H](C(=O)[C@H](C)CCCCCSc2nnnn2C)NC(=O)[C@H](C(C)C)N(C)C(=O)[C@H](CC(C)C)N(C)C(=O)[C@H](CC(C)C)N(C)C(=O)[C@@H](C)NC(=O)[C@H](C)NC(=O)[C@H](CC(C)C)N(C)C(=O)[C@H](C(C)C)NC(=O)[C@H](C(C)(C)CN(C)C(=O)OC)N(C)C(=O)[C@@H](C)N(C)C1=O` [US9669095, 7] was run?
Answer: in the range around 55 nM

Question: For `C/C=C/C[C@@H](C)C1ON2C(=O)[C@H](C(C)C)N(C)C(=O)[C@H](CC(C)C)N(C)C(=O)[C@@H](CC(C)C)N(C)C(=O)[C@@H](C)NC(=O)[C@H](C)NC(=O)[C@H](CC(C)C)N(C)C(=O)[C@H](C(C)C)NC(=O)[C@H](C(C)(C)COC(=O)NS(=O)(=O)c3ccccc3)N(C)C(=O)[C@@H](C)N(C)C(=O)[C@H](CC)NC(=O)[C@H]12` (stereo partly drawn) [US9669095, 12], which EC50 is on record?
Answer: in the range around 550 nM
